From patent US11254668B2, “Pyrazolo[1,5-A]pyrazin-4-yl and related derivatives” (Pfizer Inc., priority 2017, dated 2022)
pIC50: −log10 of the molar value. Read-outs that look alike come from different tables or passages of the source.

Experiments:
Type in all cases: biochemical
TYK2 = TYK2 (Homo sapiens (Human), UniProt P29597); test: JAK Caliper Enzyme Assay at 1 mM ATP, TYK2
Summary of the method: (§1)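 Inhibition is measured as reduced phosphorylation of a synthetic peptide by the recombinant human kinase domain at 1 mM ATP. Conditions give 20–30% conversion at room temperature before EDTA quench, and on-chip separation of labelled substrate and product yields percent conversion for dose–response plotting.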

JAK1 = JAK1 (Homo sapiens (Human), UniProt P23458); test: JAK Caliper Enzyme Assay at 1 mM ATP, JAK1
Summary of the method: (§2)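 Recombinant human kinase domains phosphorylate a fluorescent synthetic peptide at 1 mM ATP, room temperature, with enzyme and time tuned for 20-30% conversion; EDTA-stopped. Product/substrate separated by microfluidic mobility shift; percent effect versus DMSO and positive controls fitted to IC50 (nM).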

JAK2 = JAK2 (Homo sapiens (Human), UniProt O60674); test: JAK Caliper Enzyme Assay at 1 mM ATP, JAK2
Summary of the method: as §1

JAK3 = JAK3 (Homo sapiens (Human), UniProt P52333); test: JAK Caliper Enzyme Assay at 1 mM ATP, JAK3
Summary of the method: as §2

Sequence of JAK2 (O60674 849-1124): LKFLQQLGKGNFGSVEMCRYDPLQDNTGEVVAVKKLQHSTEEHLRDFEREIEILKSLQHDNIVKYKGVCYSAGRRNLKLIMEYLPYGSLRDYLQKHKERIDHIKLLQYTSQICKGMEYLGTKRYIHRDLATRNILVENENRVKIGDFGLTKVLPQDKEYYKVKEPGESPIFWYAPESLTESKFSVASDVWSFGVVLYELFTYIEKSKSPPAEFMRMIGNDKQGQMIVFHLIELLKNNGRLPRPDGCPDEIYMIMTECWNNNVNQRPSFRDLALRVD
Sequence of TYK2 (P29597 897-1176): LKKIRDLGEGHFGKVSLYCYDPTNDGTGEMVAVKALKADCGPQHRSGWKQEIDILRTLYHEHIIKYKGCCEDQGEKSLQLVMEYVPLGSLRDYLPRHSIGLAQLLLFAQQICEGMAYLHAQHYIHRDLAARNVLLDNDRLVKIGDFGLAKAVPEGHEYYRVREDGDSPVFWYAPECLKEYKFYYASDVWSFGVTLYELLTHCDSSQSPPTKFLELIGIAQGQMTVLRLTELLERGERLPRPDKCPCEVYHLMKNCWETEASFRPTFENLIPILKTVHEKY
Sequence of JAK1 (P23458 875-1153): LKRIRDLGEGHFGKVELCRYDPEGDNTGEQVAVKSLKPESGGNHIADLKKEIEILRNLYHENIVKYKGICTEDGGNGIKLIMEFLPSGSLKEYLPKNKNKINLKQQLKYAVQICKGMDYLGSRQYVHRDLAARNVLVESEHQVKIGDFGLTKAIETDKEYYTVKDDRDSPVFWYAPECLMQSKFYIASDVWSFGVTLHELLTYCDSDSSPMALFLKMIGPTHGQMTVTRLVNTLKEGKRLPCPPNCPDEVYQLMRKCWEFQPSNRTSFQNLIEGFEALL
Sequence of JAK3 (P52333 822-1111): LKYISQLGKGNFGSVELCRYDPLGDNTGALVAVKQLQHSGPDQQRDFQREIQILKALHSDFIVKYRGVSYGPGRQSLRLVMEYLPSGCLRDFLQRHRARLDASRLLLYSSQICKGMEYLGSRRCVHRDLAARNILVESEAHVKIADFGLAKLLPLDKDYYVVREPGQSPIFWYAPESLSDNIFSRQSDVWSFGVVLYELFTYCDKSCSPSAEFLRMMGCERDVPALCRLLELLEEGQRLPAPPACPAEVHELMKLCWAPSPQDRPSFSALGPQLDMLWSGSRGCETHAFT

Structure (SMILES): Cn1cc(-c2cc(-c3cnn([C@]4(CC#N)C[C@@H](C#N)C4)c3)n3ccnc3c2)cn1 [Example 459, trans-3-(cyanomethyl)-3-{4-[7-(1-methyl-1H-pyrazol-4-yl)imidazo[1,2-a]pyridin-5-yl]-1H-pyrazol-1-yl}cyclobutanecarbonitrile]
- pIC50 (TYK2; JAK Caliper enzyme assay): 6.53
- pIC50 (JAK1; JAK Caliper enzyme assay): < 5.00
- pIC50 (JAK2; JAK Caliper enzyme assay): 5.50
- pIC50 (JAK3; JAK Caliper enzyme assay): < 5.00

Structure (SMILES): CS(=O)(=O)N1CC(CC#N)(n2ccc(-c3nc(-c4cncnc4)cc4ncccc34)n2)C1 [Example 235, [1-(methylsulfonyl)-3-{3-[7-(pyrimidin-5-yl)-1,6-naphthyridin-5-yl]-1H-pyrazol-1-yl}azetidin-3-yl]acetonitrile]
- pIC50 (TYK2): 5.26
- pIC50 (JAK1): < 5.00
- pIC50 (JAK2): < 5.00
- pIC50 (JAK3): < 5.00

Structure (SMILES): N#CCC1(n2ccc(-c3nc(-c4ccc(O)nc4)cc4ncccc34)n2)CN(CC(F)(F)F)C1 [Example 183, [3-{3-[7-(6-hydroxypyridin-3-yl)-1,6-naphthyridin-5-yl]-1H-pyrazol-1-yl}-1-(2,2,2-trifluoroethyl)azetidin-3-yl]acetonitrile]
- pIC50 (TYK2): 7.68
- pIC50 (JAK1): 6.42
- pIC50 (JAK2): 6.40
- pIC50 (JAK3): < 5.00

Structure (SMILES): N#CC[C@]1(n2ncc(-c3cc(-c4cc(N)[nH]n4)cc4ncccc34)n2)C[C@@H](C#N)C1 [Example 307, cis-3-{4-[7-(5-amino-1H-pyrazol-3-yl)quinolin-5-yl]-2H-1,2,3-triazol-2-yl}-3-(cyanomethyl)cyclobutanecarbonitrile]
- pIC50 (TYK2): 8.15
- pIC50 (JAK1): 7.31
- pIC50 (JAK2): 7.52
- pIC50 (JAK3): 5.71

Structure (SMILES): CS(=O)(=O)N1CC(CC#N)(n2ccc(-c3nc(-c4cccnc4N)cc4ncccc34)n2)C1 [Example 191]
- pIC50 (TYK2): 7.12
- pIC50 (JAK1): 5.30
- pIC50 (JAK2): 6.03
- pIC50 (JAK3): < 5.00

Structure (SMILES): Cn1cc(-c2cc3ncccc3c(-c3ccn([C@]4(CC#N)C[C@@H](C#N)C4)n3)n2)cn1 [Example 102, trans-3-(cyanomethyl)-3-{3-[7-(1-methyl-1H-pyrazol-4-yl)-1,6-naphthyridin-5-yl]-1H-pyrazol-1-yl}cyclobutanecarbonitrile]
- pIC50 (TYK2): 7.77
- pIC50 (JAK1): 6.23
- pIC50 (JAK2): 7.05
- pIC50 (JAK3): 5.02

Structure (SMILES): CS(=O)(=O)N1CC(CC#N)(n2ncc(-c3cc(-c4ccc(=O)[nH]c4)cc4ncccc34)n2)C1 [Example 409, [1-(methylsulfonyl)-3-{4-[7-(6-oxo-1,6-dihydropyridin-3-yl)quinolin-5-yl]-2H-1,2,3-triazol-2-yl}azetidin-3-yl]acetonitrile]
- pIC50 (TYK2; JAK Caliper enzyme assay): 7.28
- pIC50 (JAK1; JAK Caliper enzyme assay): 5.58
- pIC50 (JAK2; JAK Caliper enzyme assay): 6.01
- pIC50 (JAK3; JAK Caliper enzyme assay): < 5.00

Structure (SMILES): N#CCC1(n2ccc(-c3nc(-c4ccn[nH]4)cc4ncccc34)n2)CC(C#N)C1 (stereo not drawn) [Example 21, cis-3-(cyanomethyl)-3-{3-[7-(1H-pyrazol-5-yl)-1,6-naphthyridin-5-yl]-1H-pyrazol-1-yl}cyclobutanecarbonitrile]
- pIC50 (TYK2): 8.05
- pIC50 (JAK1): 7.15
- pIC50 (JAK2): 7.30
- pIC50 (JAK3): 5.17

Structure (SMILES): CO[C@H]1C[C@@](CC#N)(n2ccc(-c3nc(-c4cc(N)[nH]n4)cc4ncccc34)n2)C1 [Example 52, (cis-1-{3-[7-(5-amino-1H-pyrazol-3-yl)-1,6-naphthyridin-5-yl]-1H-pyrazol-1-yl}-3-methoxycyclobutyl)acetonitrile]
- pIC50 (TYK2): 7.72
- pIC50 (JAK1): 6.42
- pIC50 (JAK2): 6.63
- pIC50 (JAK3): < 5.00

Structure (SMILES): Cc1nc(-c2cc(-c3cnn([C@]4(CC#N)C[C@H](C#N)C4)n3)c3cccnc3c2)ccc1O [Example 381, cis-3-(cyanomethyl)-3-{4-[7-(5-hydroxy-6-methylpyridin-2-yl)quinolin-5-yl]-2H-1,2,3-triazol-2-yl}cyclobutanecarbonitrile]
- pIC50 (TYK2; JAK Caliper enzyme assay): 7.52
- pIC50 (JAK1; JAK Caliper enzyme assay): 6.36
- pIC50 (JAK2; JAK Caliper enzyme assay): 6.86
- pIC50 (JAK3; JAK Caliper enzyme assay): < 5.00

Structure (SMILES): Cn1ncc(-c2cc3ncccc3c(-c3ccn(C4(CC#N)CN(S(C)(=O)=O)C4)n3)n2)c1C(N)=O [Example 134, 4-(5-{1-[3-(cyanomethyl)-1-(methylsulfonyl)azetidin-3-yl]-1H-pyrazol-3-yl}-1,6-naphthyridin-7-yl)-1-methyl-1H-pyrazole-5-carboxamide]
- pIC50 (TYK2): 6.16
- pIC50 (JAK1): < 5.00
- pIC50 (JAK2): < 5.00
- pIC50 (JAK3): < 5.00

Structure (SMILES): N#CC[C@]1(n2ncc(-c3cc(-c4cnccn4)cc4ncccc34)n2)C[C@@H](C#N)C1 [Example 392, cis-3-(cyanomethyl)-3-{4-[7-(pyrazin-2-yl)quinolin-5-yl]-2H-1,2,3-triazol-2-yl}cyclobutanecarbonitrile]
- pIC50 (TYK2; JAK Caliper enzyme assay): 6.18
- pIC50 (JAK1; JAK Caliper enzyme assay): 5.15
- pIC50 (JAK2; JAK Caliper enzyme assay): 5.52
- pIC50 (JAK3; JAK Caliper enzyme assay): < 5.00

Structure (SMILES): N#CCC1(n2ccc(-c3nc(-c4ccnc(N)c4)cc4ncccc34)n2)CC(C#N)C1 (stereo not drawn) [Example 199, trans-3-{3-[7-(2-aminopyridin-4-yl)-1,6-naphthyridin-5-yl]-1H-pyrazol-1-yl}-3-(cyanomethyl)cyclobutanecarbonitrile]
- pIC50 (TYK2): 7.70
- pIC50 (JAK1): 6.47
- pIC50 (JAK2): 6.70
- pIC50 (JAK3): < 5.00

Structure (SMILES): CO[C@H]1C[C@@](CC#N)(n2cc(-c3cc(-c4c[nH]nc4CO)cc4nccn34)cn2)C1 [Example 463, [cis-1-(4-{7-[3-(hydroxymethyl)-1H-pyrazol-4-yl]imidazo[1,2-a]pyridin-5-yl}-1H-pyrazol-1-yl)-3-methoxycyclobutyl]acetonitrile]
- pIC50 (TYK2; JAK Caliper enzyme assay): 5.67
- pIC50 (JAK1; JAK Caliper enzyme assay): < 5.00
- pIC50 (JAK2; JAK Caliper enzyme assay): < 5.00
- pIC50 (JAK3; JAK Caliper enzyme assay): < 5.00

Structure (SMILES): CC(=O)Nc1cccc(-c2cc(-c3cnn([C@]4(CC#N)C[C@@H](C#N)C4)n3)c3cccnc3c2)n1 [Example 376, N-[6-(5-{2-[trans-3-cyano-1-(cyanomethyl)cyclobutyl]-2H-1,2,3-triazol-4-yl}quinolin-7-yl)pyridin-2-yl]acetamide]
- pIC50 (TYK2; JAK Caliper enzyme assay): 7.44
- pIC50 (JAK1; JAK Caliper enzyme assay): 6.23
- pIC50 (JAK2; JAK Caliper enzyme assay): 6.81
- pIC50 (JAK3; JAK Caliper enzyme assay): 5.02

Structure (SMILES): CS(=O)(=O)N1CC(CC#N)(n2ncc(-c3cc(-c4cncnc4)cc4ncccc34)n2)C1 [Example 389, [1-(methylsulfonyl)-3-{4-[7-(pyrimidin-5-yl)quinolin-5-yl]-2H-1,2,3-triazol-2-yl}azetidin-3-yl]acetonitrile]
- pIC50 (TYK2; JAK Caliper enzyme assay): 5.30
- pIC50 (JAK1; JAK Caliper enzyme assay): < 5.00
- pIC50 (JAK2; JAK Caliper enzyme assay): < 5.00
- pIC50 (JAK3; JAK Caliper enzyme assay): < 5.00

Structure (SMILES): Cc1nc(-c2cc(-c3cnn([C@]4(CC#N)C[C@H](C#N)C4)n3)c3cccnc3c2)c[nH]1 [Example 336, cis-3-(cyanomethyl)-3-{4-[7-(2-methyl-1H-imidazol-4-yl)quinolin-5-yl]-2H-1,2,3-triazol-2-yl}cyclobutanecarbonitrile]
- pIC50 (TYK2): 8.10
- pIC50 (JAK1): 6.49
- pIC50 (JAK2): 7.49
- pIC50 (JAK3): 5.45

Structure (SMILES): CS(=O)(=O)N1CC(CC#N)(n2ccc(-c3nc(-c4cn[nH]c4)cc4ncccc34)n2)C1 [Example 75, [1-(methylsulfonyl)-3-{3-[7-(1H-pyrazol-4-yl)-1,6-naphthyridin-5-yl]-1H-pyrazol-1-yl}azetidin-3-yl]acetonitrile]
- pIC50 (TYK2): 7.34
- pIC50 (JAK1): 6.17
- pIC50 (JAK2): 6.35
- pIC50 (JAK3): < 5.00

Structure (SMILES): CO[C@H]1C[C@](CC#N)(n2cc(-c3nc(-c4cnn(CCO)c4)cc4ncccc34)cn2)C1 [Example 9, [trans-1-(4-{7-[1-(2-hydroxyethyl)-1H-pyrazol-4-yl]-1,6-naphthyridin-5-yl}-1H-pyrazol-1-yl)-3-methoxycyclobutyl]acetonitrile]
- pIC50 (TYK2): 7.11
- pIC50 (JAK1): 6.28
- pIC50 (JAK2): 6.97
- pIC50 (JAK3): < 5.00
